Source: patent US20230157952A1, “METHOD FOR IMPROVING THE STABILITY OF A PHARMACEUTICAL COMPOSITION COMPRISING A HIGH PENETRATION DRUG, AND THE PHARMACEUTICAL COMPOSITION OBTAINED THEREFROM” (Techfields Inc., priority 2020, published 2023)
Each block holds one compound with its values, some of them ahead of it.

Legend:
[1] = Effect of temperature (and pH) on the stability of the solution (purity); type: physicochemical; details: 7% solution in water
[2] = Effect of concentration on the stability of the solution (purity over time); details: in water at 25° C.

- Stability of the solution at a temperature higher than 40° C. and a pH lower than 3 or greater than 6 [1]: not stable
- Purity at Day 3 ([2]; 0.01 wt %): 84.7%
- Purity at Day 7 ([2]; 0.01 wt %): 73.9%
- Purity at Day 14 ([2]; 0.01 wt %): 62.3%
- Purity at Day 21 ([2]; 0.01 wt %): 53.9%
- Purity at Day 28 ([2]; 0.01 wt %): 45.9%
- Purity at hr 0 ([2]; 0.01 wt %): 97.7%
- Purity at Day 3 ([2]; 0.1 wt %): 96.7%
- Purity at Day 7 ([2]; 0.1 wt %): 95.5%
- Purity at Day 14 ([2]; 0.1 wt %): 91.1%
- Purity at Day 21 ([2]; 0.1 wt %): 87.2%
- Purity at Day 28 ([2]; 0.1 wt %): 83.8%
- Purity at hr 0 ([2]; 0.1 wt %): 97.9%
- Purity at Day 3 ([2]; 1 wt %): 97.0%
- Purity at Day 7 ([2]; 1 wt %): 96.0%
- Purity at Day 14 ([2]; 1 wt %): 94.0%
- Purity at Day 21 ([2]; 1 wt %): 92.3%
- Purity at Day 28 ([2]; 1 wt %): 90.9%
- Purity at hr 0 ([2]; 1 wt %): 98.1%
- Purity at Day 3 ([2]; 3 wt %): 97.7%
- Purity at Day 7 ([2]; 3 wt %): 97.0%
- Purity at Day 14 ([2]; 3 wt %): 96.0%
- Purity at Day 21 ([2]; 3 wt %): 94.8%
- Purity at Day 28 ([2]; 3 wt %): 93.8%
- Purity at hr 0 ([2]; 3 wt %): 98.3%
- Purity at Day 3 ([2]; 5 wt %): 98.2%
- Purity at Day 7 ([2]; 5 wt %): 98.0%
- Purity at Day 14 ([2]; 5 wt %): 97.6%
- Purity at Day 21 ([2]; 5 wt %): 97.0%
- Purity at Day 28 ([2]; 5 wt %): 96.3%
- Purity at hr 0 ([2]; 5 wt %): 98.4%
- Purity at Day 3 ([2]; 7 wt %): 98.4%
- Purity at Day 7 ([2]; 7 wt %): 98.2%
- Purity at Day 14 ([2]; 7 wt %): 98.0%
- Purity at Day 21 ([2]; 7 wt %): 97.8%
- Purity at Day 28 ([2]; 7 wt %): 97.4%
- Purity at hr 0 ([2]; 7 wt %): 98.5%
- Purity at Day 3 ([2]; 8 wt %): 98.4%
- Purity at Day 7 ([2]; 8 wt %): 98.3%
- Purity at Day 14 ([2]; 8 wt %): 98.0%
- Purity at Day 21 ([2]; 8 wt %): 97.9%
- Purity at Day 28 ([2]; 8 wt %): 97.5%
- Purity at hr 0 ([2]; 8 wt %): 98.4%
- Purity at Day 3 ([2]; 10 wt %): 98.4%
- Purity at Day 7 ([2]; 10 wt %): 98.3%
- Purity at Day 14 ([2]; 10 wt %): 98.2%
- Purity at Day 21 ([2]; 10 wt %): 98.0%
- Purity at Day 28 ([2]; 10 wt %): 97.5%
- Purity at hr 0 ([2]; 10 wt %): 98.5%
- Purity at Day 3 ([2]; 15 wt %): 98.4%
- Purity at Day 7 ([2]; 15 wt %): 98.2%
- Purity at Day 14 ([2]; 15 wt %): 98.1%
- Purity at Day 21 ([2]; 15 wt %): 98.0%
- Purity at Day 28 ([2]; 15 wt %): 97.6%
- Purity at hr 0 ([2]; 15 wt %): 98.5%
- Purity at Day 3 ([2]; 20 wt %): 98.4%
- Purity at Day 7 ([2]; 20 wt %): 98.2%
- Purity at Day 14 ([2]; 20 wt %): 98.2%
- Purity at Day 21 ([2]; 20 wt %): 98.1%
- Purity at Day 28 ([2]; 20 wt %): 97.5%
- Purity at hr 0 ([2]; 20 wt %): 98.4%
- Purity at Day 3 ([2]; 30 wt %): 98.4%
- Purity at Day 7 ([2]; 30 wt %): 98.3%
- Purity at Day 14 ([2]; 30 wt %): 98.1%
- Purity at Day 21 ([2]; 30 wt %): 98.1%
- Purity at Day 28 ([2]; 30 wt %): 97.5%
- Purity at hr 0 ([2]; 30 wt %): 98.5%
- Purity at Day 3 ([2]; 50 wt %): 98.5%
- Purity at Day 7 ([2]; 50 wt %): 98.3%
- Purity at Day 14 ([2]; 50 wt %): 98.1%
- Purity at Day 21 ([2]; 50 wt %): 97.8%
- Purity at Day 28 ([2]; 50 wt %): 97.6%
- Purity at hr 0 ([2]; 50 wt %): 98.5%
- Stability when the concentration is 0.1% or lower [2]: not stable
Structure (SMILES): CCN(CC)CCOC(=O)CCc1ccc2cc(OC)ccc2c1.Cl [2-(diethylamino)ethyl 3-(6-methoxy-2-naphthyl)propionate•HCl]

- Stability of the solution at a temperature higher than 40° C. and a pH lower than 3 or greater than 6 [1]: not stable
- Purity at Day 3 ([2]; 0.01 wt %): 83.8%
- Purity at Day 7 ([2]; 0.01 wt %): 73.9%
- Purity at Day 14 ([2]; 0.01 wt %): 58.9%
- Purity at Day 21 ([2]; 0.01 wt %): 47.6%
- Purity at Day 28 ([2]; 0.01 wt %): 38.9%
- Purity at hr 0 ([2]; 0.01 wt %): 97.8%
- Purity at Day 3 ([2]; 0.1 wt %): 94.7%
- Purity at Day 7 ([2]; 0.1 wt %): 90.6%
- Purity at Day 14 ([2]; 0.1 wt %): 83.5%
- Purity at Day 21 ([2]; 0.1 wt %): 75.7%
- Purity at Day 28 ([2]; 0.1 wt %): 65.5%
- Purity at hr 0 ([2]; 0.1 wt %): 97.9%
- Purity at Day 3 ([2]; 1 wt %): 95.3%
- Purity at Day 7 ([2]; 1 wt %): 92.9%
- Purity at Day 14 ([2]; 1 wt %): 88.9%
- Purity at Day 21 ([2]; 1 wt %): 84.6%
- Purity at Day 28 ([2]; 1 wt %): 79.2%
- Purity at hr 0 ([2]; 1 wt %): 98.0%
- Purity at Day 3 ([2]; 3 wt %): 96.3%
- Purity at Day 7 ([2]; 3 wt %): 95.1%
- Purity at Day 14 ([2]; 3 wt %): 92.5%
- Purity at Day 21 ([2]; 3 wt %): 89.0%
- Purity at Day 28 ([2]; 3 wt %): 85.7%
- Purity at hr 0 ([2]; 3 wt %): 98.4%
- Purity at Day 3 ([2]; 5 wt %): 98.2%
- Purity at Day 7 ([2]; 5 wt %): 97.8%
- Purity at Day 14 ([2]; 5 wt %): 97.0%
- Purity at Day 21 ([2]; 5 wt %): 96.3%
- Purity at Day 28 ([2]; 5 wt %): 95.0%
- Purity at hr 0 ([2]; 5 wt %): 98.5%
- Purity at Day 3 ([2]; 7 wt %): 98.6%
- Purity at Day 7 ([2]; 7 wt %): 98.2%
- Purity at Day 14 ([2]; 7 wt %): 98.0%
- Purity at Day 21 ([2]; 7 wt %): 97.7%
- Purity at Day 28 ([2]; 7 wt %): 97.4%
- Purity at hr 0 ([2]; 7 wt %): 98.8%
- Purity at Day 3 ([2]; 8 wt %): 98.7%
- Purity at Day 7 ([2]; 8 wt %): 98.3%
- Purity at Day 14 ([2]; 8 wt %): 97.9%
- Purity at Day 21 ([2]; 8 wt %): 97.7%
- Purity at Day 28 ([2]; 8 wt %): 97.5%
- Purity at hr 0 ([2]; 8 wt %): 98.7%
- Purity at Day 3 ([2]; 10 wt %): 98.6%
- Purity at Day 7 ([2]; 10 wt %): 98.5%
- Purity at Day 14 ([2]; 10 wt %): 98.2%
- Purity at Day 21 ([2]; 10 wt %): 97.8%
- Purity at Day 28 ([2]; 10 wt %): 97.4%
- Purity at hr 0 ([2]; 10 wt %): 98.8%
- Purity at Day 3 ([2]; 15 wt %): 98.7%
- Purity at Day 7 ([2]; 15 wt %): 98.4%
- Purity at Day 14 ([2]; 15 wt %): 98.1%
- Purity at Day 21 ([2]; 15 wt %): 97.9%
- Purity at Day 28 ([2]; 15 wt %): 97.5%
- Purity at hr 0 ([2]; 15 wt %): 98.8%
- Purity at Day 3 ([2]; 20 wt %): 98.7%
- Purity at Day 7 ([2]; 20 wt %): 98.5%
- Purity at Day 14 ([2]; 20 wt %): 98.2%
- Purity at Day 21 ([2]; 20 wt %): 97.8%
- Purity at Day 28 ([2]; 20 wt %): 97.5%
- Purity at hr 0 ([2]; 20 wt %): 98.7%
- Purity at Day 3 ([2]; 30 wt %): 98.7%
- Purity at Day 7 ([2]; 30 wt %): 98.5%
- Purity at Day 14 ([2]; 30 wt %): 98.3%
- Purity at Day 21 ([2]; 30 wt %): 97.9%
- Purity at Day 28 ([2]; 30 wt %): 97.6%
- Purity at hr 0 ([2]; 30 wt %): 98.8%
- Purity at Day 3 ([2]; 50 wt %): 98.7%
- Purity at Day 7 ([2]; 50 wt %): 98.5%
- Purity at Day 14 ([2]; 50 wt %): 98.2%
- Purity at Day 21 ([2]; 50 wt %): 97.8%
- Purity at Day 28 ([2]; 50 wt %): 97.5%
- Purity at hr 0 ([2]; 50 wt %): 98.8%
- Stability when the concentration is 0.1% or lower [2]: not stable
Structure (SMILES): CCN(CC)CCOC(=O)CCc1nc(-c2ccccc2)c(-c2ccccc2)o1.Cl [2-(diethylamino)ethyl 4,5-diphenyl-2-oxazolepropionate•HCl]
